pIC50: −log10 of the molar value. Read-outs that look alike come from different tables or passages of the source.
What was measured:
[1] = system: fibrin-induced microglia activation; assay: Image-based assay of fibrin-induced microglia activation (HTS and dose response); format: cell-based, rat; conditions: for IC50: read-out: Fibrin IC50 (uM) (Suppl. Table 7); for inhibition at 10 µM: Rattus norvegicus, Microglia, read-out: Fibrin % inhibition
[2] = system: fibrin- and LPS-induced microglia activation; assay: cells; format: cell-based, rat; conditions: for Hit: HTS hit classification
[3] = system: LPS-induced microglia activation; assay: Image-based assay of LPS-induced microglia activation (HTS and dose response); format: cell-based, rat; conditions: for IC50: read-out: LPS IC50 (uM) (Suppl. Table 7); for inhibition at 10 µM: Rattus norvegicus, Microglia, read-out: LPS % inhibition
[4] = system: primary rat microglia; assay: Cell toxicity (dead cells, size <150 μm2) in LPS assay; conditions: for IC50: read-out: Cell Toxicity IC50 (uM) [LPS assay]
[5] = system: primary rat microglia; assay: Cell toxicity (dead cells, size <150 μm2) in coated fibrin (cFib) assay; conditions: for IC50: read-out: Cell Toxicity IC50 (uM) [cFib assay];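 on Fibrin % cell toxicity: share of dead cells sized under 150 µm2 at 10 µM in fibrin-stimulated microglia HTS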
[6] = Table 1, dose response 0.001-20 μM, triplicates, primary rat microglia, 48 h, read-out: Fibrin IC50
[7] = dose response, fibrin-induced microglia activation, read-out: Fibrin IC50
[8] = fibrin-induced microglia activation, dose response
[9] = primary microglia HTS, fibrin stimulation, increased cell size (>800 μm^2) as marker of activation
[10] = HTS of 1907 compounds, quadrant by fibrin and LPS inhibition
[11] = hit classification in microglia HTS
[12] = quadrant by fibrin and LPS inhibition in HTS of 1907 compounds
[13] = LPS-induced microglia activation, dose response
[14] = Table 1, dose response 0.001-20 μM, triplicates, primary rat microglia, 48 h, read-out: LPS IC50
[15] = dose response, LPS-induced microglia activation, read-out: LPS IC50
[16] = primary microglia HTS, LPS stimulation, increased cell size (>800 μm^2) as marker of activation
[17] = primary microglia HTS, LPS stimulation, decreased size (<150 μm^2) as marker of toxicity
[18] = primary microglia HTS, fibrin stimulation, decreased size (<150 μm^2) as marker of toxicity
[19] = primary microglia HTS, 10 μM, fibrin-stimulated, cell size >800 μm^2 as marker of activation
[20] = primary microglia HTS, 10 μM, LPS-stimulated, cell size >800 μm^2 as marker of activation
[21] = primary microglia HTS, 10 μM, LPS assay, cell size <150 μm^2 as marker of toxicity
[22] = primary microglia HTS, 10 μM, fibrin assay, cell size <150 μm^2 as marker of toxicity
[23] = primary HTS, 10 μM, fibrin-stimulated primary microglia
[24] = primary HTS, 10 μM, LPS-stimulated primary microglia
[25] = primary HTS, 10 μM, LPS assay, dead cells size <150 μm2
[26] = primary HTS, 10 μM, fibrin assay, dead cells size <150 μm2
[27] = 48 h, primary microglia HTS, LPS stimulation, increased cell size (>800 μm^2) as marker of activation
[28] = primary microglia HTS, fibrin stimulation, activation = cell size >800 μm2
[29] = 48 h, primary microglia HTS, LPS stimulation, activation = cell size >800 μm2
[30] = primary microglia HTS, LPS stimulation, toxicity = cell size <150 μm2
[31] = primary microglia HTS, fibrin stimulation, toxicity = cell size <150 μm2

## Monensin [reference compound]
[1]
  Fibrin Selectivity: 49
  Fibrin Selectivity (LOG10): 1.69
[1]; Hill slope of fibrin dose response, Table 7
  fib_HS: −3.80
[1]; [6]
  pIC50: 8.40
[1]; Table 3
  IC50: 0.004 µM
[1]; Table 6
  IC50: 0.004 µM
[1]; Table 7
  fib specificity: 0.2
[1]; Table 7, read-out: fib_IC50
  pIC50: 5.94
[1]; [7]
  pIC50: 8.40
[1]; fibrin vs LPS, LOG10, Table 6
  Fibrin Selectivity (LOG10): 1.69
[1]; fibrin vs LPS, Table 6
  Fibrin Selectivity: 49
[1]; [8]
  IC50: 0.004 µM
[1]; [9]
  Fibrin % inhibition: 101%
[2]
  Hit: HIT (Hits were defined as molecules that exhibited greater than 50% inhibition of either fibrin or LPS activation)
[2]; [10]
  Quadrant (FIG. 5b): Q2
[2]; Table 1, screen at 10 μM
  Quadrant (FIG. 5b): Q2
[2]; Table 3
  Cherry-picked Hit (Suppl. Table 7): HIT (Hits were defined as molecules that exhibited greater than 50% inhibition of either fibrin or LPS activation)
[2]; Table 3, screen at 10 μM
  Quadrant (FIG. 5b): Q2
[2]; Table 7, fib = fibrin, LPS, tox = toxicity
  Activity: fib/LPS
[2]; [11]
  Cherry-picked Hit (Suppl. Table 7): HIT (Hits were defined as molecules that exhibited greater than 50% inhibition of either fibrin or LPS activation)
[2]; microglia HTS, Table 6
  Cherry-picked Hit (Suppl. Table 7): HIT (Hits were defined as molecules that exhibited greater than 50% inhibition of either fibrin or LPS activation)
  Quadrant (FIG. 5b): Q2
[2]; [12]
  Quadrant (FIG. 5b): Q2
[3]; Hill slope of LPS dose response, Table 7
  LPS_HS: −0.48
[3]; [13]
  IC50: 0.2 µM
[3]; [14]
  pIC50: 6.70
[3]; Table 3
  IC50: 0.2 µM
[3]; Table 6
  IC50: 0.2 µM
[3]; Table 7
  LPS specificity: 5.4
[3]; Table 7, read-out: LPS_IC50
  pIC50: 6.67
[3]; [15]
  pIC50: 6.70
[3]; [16]
  LPS % inhibition: 117%
[4]; [17]
  LPS % cell toxicity: 6%
[4]; LPS assay
  IC50: 2 µM
[4]; LPS assay, Table 6
  IC50: 2 µM
[4]; Table 3
  IC50: 2 µM
[5]; [18]
  Fibrin % cell toxicity: 3%
[5]; Table 3
  IC50: > 20 µM
[5]; cFib assay
  IC50: > 20 µM
[5]; cFib assay, Table 6
  IC50: > 20 µM

## COc1ncnc(NS(=O)(=O)c2ccc(N)cc2)c1OC [Sulfadoxine]
[1]; [19]
  inhibition at 10 µM: -12%
[2]; [10]
  Quadrant (FIG. 5b): Q4
[3]; [20]
  inhibition at 10 µM: 3%
[4]; [21]
  LPS % cell toxicity: 0%
[5]; [22]
  Fibrin % cell toxicity: 1%

## CN(C)CCN(Cc1ccc(Cl)cc1)c1ccccn1 [Chloropyramine]
[1]; [23]
  inhibition at 10 µM: 25%
[2]; primary HTS, 10 μM
  Quadrant (FIG. 5b): Q4
[3]; [24]
  inhibition at 10 µM: 13%
[4]; [25]
  LPS % cell toxicity: 0%
[5]; [26]
  Fibrin % cell toxicity: 1%

## Cc1ccc(Nc2c(F)cccc2Cl)c(CC(=O)O)c1 [Lumiracoxib]
[1]; [9]
  inhibition at 10 µM: 14%
[2]; [12]
  Quadrant (FIG. 5b): Q4
[3]; [27]
  inhibition at 10 µM: 18%
[4]; [17]
  LPS % cell toxicity: 0%
[5]; [18]
  Fibrin % cell toxicity: 1%

## Oc1c(I)cc(Cl)c2cccnc12 [Clioquinol]
[1]; [23]
  inhibition at 10 µM: -11%
[2]; primary HTS, 10 μM
  Quadrant (FIG. 5b): Q4
[3]; [24]
  inhibition at 10 µM: 22%
[4]; [25]
  LPS % cell toxicity: 1%
[5]; [26]
  Fibrin % cell toxicity: 1%

## Nc1ccn([C@@H]2O[C@H](CO)[C@@H](O)C2(F)F)c(=O)n1 [Gemcitabine]
[1]; [28]
  inhibition at 10 µM: -31%
[2]; [12]
  Quadrant (FIG. 5b): Q4
[3]; [29]
  inhibition at 10 µM: 0%
[4]; [30]
  LPS % cell toxicity: 0%
[5]; [31]
  Fibrin % cell toxicity: 1%

## CO[C@@]1(NC(=O)C(C(=O)O)c2ccc(O)cc2)C(=O)N2C(C(=O)O)=C(CSc3nnnn3C)CO[C@@H]21 (stereo partly shown) [Latamoxef]
[1]; [28]
  inhibition at 10 µM: -18%
[2]; [12]
  Quadrant (FIG. 5b): Q4
[3]; [29]
  inhibition at 10 µM: 22%
[4]; [30]
  LPS % cell toxicity: 0%
[5]; [31]
  Fibrin % cell toxicity: 1%

## Tyrothricin [reference compound]
[1]; [6]
  pIC50: 5.52
[1]; [7]
  pIC50: 5.52
[1]; [9]
  Fibrin % inhibition: 89%
[2]
  Hit: HIT (Hits were defined as molecules that exhibited greater than 50% inhibition of either fibrin or LPS activation)
[2]; Table 1, screen at 10 μM
  Quadrant (FIG. 5b): Q2
[2]; [12]
  Quadrant (FIG. 5b): Q2
[3]; [14]
  pIC50: 6.30
[3]; [15]
  pIC50: 6.30
[3]; [16]
  LPS % inhibition: 102%
[4]; [17]
  LPS % cell toxicity: 2%
[5]; [18]
  Fibrin % cell toxicity: 2%

## COc1cnc(NS(=O)(=O)c2ccc(N)cc2)nc1 [Sulfameter]
[1]; [19]
  inhibition at 10 µM: 4%
[2]; [10]
  Quadrant (FIG. 5b): Q4
[3]; [20]
  inhibition at 10 µM: 11%
[4]; [21]
  LPS % cell toxicity: 0%
[5]; [22]
  Fibrin % cell toxicity: 1%

## CC1(C)S[C@@H]2[C@H](NC(=O)[C@H](C(=O)O)c3ccsc3)C(=O)N2[C@H]1C(=O)O [Ticarcillin Disodium]
[1]; [19]
  inhibition at 10 µM: -22%
[2]; [10]
  Quadrant (FIG. 5b): Q4
[3]; [20]
  inhibition at 10 µM: 7%
[4]; [21]
  LPS % cell toxicity: 0%
[5]; [22]
  Fibrin % cell toxicity: 0%

## Cc1nc(C)c(Cl)c(O)c1Cl [Clopidol]
[1]; [23]
  inhibition at 10 µM: -41%
[2]; primary HTS, 10 μM
  Quadrant (FIG. 5b): Q4
[3]; [24]
  inhibition at 10 µM: 9%
[4]; [25]
  LPS % cell toxicity: 0%
[5]; [26]
  Fibrin % cell toxicity: 1%

## CCCCCCc1ccc(O)cc1O.Nc1c2ccccc2nc2ccccc12 [Acrisorcin, reference compound]
[1]; [6]
  pIC50: 5.15
[1]; [7]
  pIC50: 5.15
[1]; [8]
  IC50: 7 µM
[1]; [9]
  Fibrin % inhibition: 87%
[2]
  Hit: HIT (Hits were defined as molecules that exhibited greater than 50% inhibition of either fibrin or LPS activation)
[2]; [10]
  Quadrant (FIG. 5b): Q2
[2]; Table 1, screen at 10 μM
  Quadrant (FIG. 5b): Q2
[2]; [11]
  Cherry-picked Hit (Suppl. Table 7): HIT (Hits were defined as molecules that exhibited greater than 50% inhibition of either fibrin or LPS activation)
[2]; [12]
  Quadrant (FIG. 5b): Q2
[3]; [13]
  IC50: 5 µM
[3]; [14]
  pIC50: 5.30
[3]; [15]
  pIC50: 5.30
[3]; [16]
  LPS % inhibition: 113%
[4]; [17]
  LPS % cell toxicity: 52%
[4]; LPS assay
  IC50: 6 µM
[5]; [18]
  Fibrin % cell toxicity: 2%

## COc1ccc(OC)c(C(O)C(C)N)c1 (stereo not shown) [Methoxamine]
[1]; [9]
  inhibition at 10 µM: 3%
[2]; [12]
  Quadrant (FIG. 5b): Q4
[3]; [27]
  inhibition at 10 µM: 1%
[4]; [17]
  LPS % cell toxicity: 0%
[5]; [18]
  Fibrin % cell toxicity: 1%

## Cc1ccc(S(=O)(=O)NC(=O)NN2CC3CCCC3C2)cc1 (stereo not shown) [Gliclazide]
[1]; [28]
  inhibition at 10 µM: 1%
[2]; [12]
  Quadrant (FIG. 5b): Q4
[3]; [29]
  inhibition at 10 µM: 20%
[4]; [30]
  LPS % cell toxicity: 0%
[5]; [31]
  Fibrin % cell toxicity: 1%

## CN(C)CC/C=C1/c2ccccc2COc2ccc(CC(=O)O)cc21 [Olopatadine]
[1]; [9]
  inhibition at 10 µM: -42%
[2]; [12]
  Quadrant (FIG. 5b): Q4
[3]; [27]
  inhibition at 10 µM: -9%
[4]; [17]
  LPS % cell toxicity: 0%
[5]; [18]
  Fibrin % cell toxicity: 1%

## O=C1/C(=C/c2cccs2)CCC/C1=C\c1cccs1 [Tenylidone]
[1]; [19]
  inhibition at 10 µM: -9%
[2]; [10]
  Quadrant (FIG. 5b): Q4
[3]; [20]
  inhibition at 10 µM: 15%
[4]; [21]
  LPS % cell toxicity: 0%
[5]; [22]
  Fibrin % cell toxicity: 1%

## COc1cc(NS(=O)(=O)c2ccc(N)cc2)ncn1 [Sulfamonomethoxine]
[1]; [19]
  inhibition at 10 µM: 38%
[2]; [10]
  Quadrant (FIG. 5b): Q4
[3]; [20]
  inhibition at 10 µM: 19%
[4]; [21]
  LPS % cell toxicity: 1%
[5]; [22]
  Fibrin % cell toxicity: 1%

## CN(Cc1cc(Br)cc(Br)c1N)C1CCCCC1 [Bromhexine]
[1]; [23]
  inhibition at 10 µM: -16%
[2]; primary HTS, 10 μM
  Quadrant (FIG. 5b): Q4
[3]; [24]
  inhibition at 10 µM: 11%
[4]; [25]
  LPS % cell toxicity: 0%
[5]; [26]
  Fibrin % cell toxicity: 0%

## CO[C@@]1(NC(=O)CSCC#N)C(=O)N2C(C(=O)O)=C(CSc3nnnn3C)CS[C@@H]21 [Cefmetazole]
[1]; [23]
  inhibition at 10 µM: -50%
[2]; primary HTS, 10 μM
  Quadrant (FIG. 5b): Q4
[3]; [24]
  inhibition at 10 µM: 8%
[4]; [25]
  LPS % cell toxicity: 0%
[5]; [26]
  Fibrin % cell toxicity: 0%

## C[CH2][Hg][S]c1ccccc1C(=O)O [Ethylmercurithiosalicylic acid]
[1]; [9]
  Fibrin % inhibition: 109%
[2]; [12]
  Quadrant (FIG. 5b): Q2
[3]; [16]
  LPS % inhibition: 127%
[4]; [17]
  LPS % cell toxicity: 95%
[5]; [18]
  Fibrin % cell toxicity: 92%

## Nc1nc(=O)[nH]cc1F [Flucytosine, 5-fluorocytosine]
[1]; [28]
  Fibrin % inhibition: 13%
[2]; [12]
  Quadrant (FIG. 5b): Q4
[3]; primary microglia HTS, LPS stimulation, activation = cell size >800 μm2
  LPS % inhibition: 17%
[4]; [30]
  LPS % cell toxicity: 1%
[5]; [31]
  Fibrin % cell toxicity: 1%
